According to article PMC6720094, “Comparative pharmacokinetics of oxyresveratrol alone and in combination with piperine as a bioenhancer in rats” (BMC Complementary and Alternative Medicine, 2019):
Where two headings read alike, the source gives them in different places.

Assays:
male Wistar rats = experiment: Tolerability in rats (AST, ALT, creatinine, physical appearance); format: in vivo, rat
Description: Rats weighing more than 400 g were enrolled in the pharmacokinetic experiments. All rats were placed into metabolic cages and fasted overnight before the pharmacokinetic experiments. The rats were divided randomly into four groups (n = 6 in each): oxyresveratrol 100 mg/kg p.o., oxyresveratrol 100 mg/kg plus piperine 10 mg/kg p.o., oxyresveratrol 10 mg/kg i.v., and oxyresveratrol 10 mg/kg plus piperine 1 mg/kg i.v. All test formulations were freshly prepared by dissolving the compounds in 40% DMSO/NSS to obtain clear solution. The preparations were administered by oral gavage or intravenous administration via the lateral tail vein. All rats were anaesthetized with 5% isoflurane by chamber induction method to prevent pain and injury during drug administration and blood collection. The blood collection was conducted at 0, 0.083 (5 min), 0.25 (15 min), 0.5 (30 min), 1, 2, 4, 8, 16 and 24 h in unconscious rats. For tissue collection, euthanization with overdose isoflurane > 10% by chamber induction method was conducted at 0.083 (5 min), 1, 2 and 4 h after oral gavage or intravenous administration, and death was confirmed by exsanguination. […] Plasma samples were collected at baseline (0 h) and 24 h from a subset of rats for determination of AST, ALT and creatinine concentrations, performed by Professional Laboratory Management Crop Co., Ltd. Determination of the creatinine level was performed by the chemiluminescence method, while AST and ALT determination was performed with a kinetic method and measured using an automated analyzer (Cobas 6000; Hoffmann–La Roche, Ltd.).

[1] = Tissue distribution, tissue to plasma ratio (Kp) in rats; format: in vivo
in vivo = details: rat
Description: Rats weighing more than 400 g were enrolled in the pharmacokinetic experiments. All rats were placed into metabolic cages and fasted overnight before the pharmacokinetic experiments. The rats were divided randomly into four groups (n = 6 in each): oxyresveratrol 100 mg/kg p.o., oxyresveratrol 100 mg/kg plus piperine 10 mg/kg p.o., oxyresveratrol 10 mg/kg i.v., and oxyresveratrol 10 mg/kg plus piperine 1 mg/kg i.v. All test formulations were freshly prepared by dissolving the compounds in 40% DMSO/NSS to obtain clear solution. The preparations were administered by oral gavage or intravenous administration via the lateral tail vein. […] Plasma samples were collected at baseline (0 h) and 24 h from a subset of rats for determination of AST, ALT and creatinine concentrations, performed by Professional Laboratory Management Crop Co., Ltd. Determination of the creatinine level was performed by the chemiluminescence method, while AST and ALT determination was performed with a kinetic method and measured using an automated analyzer (Cobas 6000; Hoffmann–La Roche, Ltd.). […]
The pharmacokinetic parameters were calculated by non–compartmental analysis using PK Solution 2.0 software (Summit Research Service). […] The absolute oral bioavailability of oxyresveratrol was calculated as (AUCp.o./dosep.o.)/(AUCi.v./dosei.v.). […]

physchem = details: %Recovery (stability)
[2] = rat, in vivo, cited from earlier work
[3] = rat, in vivo, ip, 40 mg/kg; cited from earlier work
P–glycoprotein [4] = details: cited from earlier work
UGT [5] = tested on: UGT; design: method as in PMID 3917507; details: mice ref 19, cited from earlier work
P–glycoprotein [6] = tested on: P–glycoprotein; design: method as in PMID 12130727; details: cited from earlier work
UGT [7] = tested on: UGT; design: method as in PMID 17487234; details: cited from earlier work
[8] = intravenous, oxyresveratrol 10 mg/kg (+ piperine 1 mg/kg in combination), postdose (24 h)
[9] = intravenous, oxyresveratrol 10 mg/kg (+ piperine 1 mg/kg in combination), predose (0 h) baseline
[10] = oral, oxyresveratrol 100 mg/kg (+ piperine 10 mg/kg in combination), postdose (24 h)
[11] = oral, oxyresveratrol 100 mg/kg (+ piperine 10 mg/kg in combination), predose (0 h) baseline

With Oc1cc(O)cc(C=Cc2ccc(O)cc2O)c1 [Oxyresveratrol, 2,4,3′,5′–tetrahydroxystilbene] as the molecule, how does the ALT (male Wistar rats; [8]) read?
The ALT was 5.80 ± 1.09 U/L.

What about the AST (male Wistar rats; [8]) of the same molecule?
Its AST is 45.40 ± 3.78 U/L.

What about the Creatinine (male Wistar rats; [8]) of the same molecule?
The Creatinine was 0.32 ± 0.08 mg/dL.

And the ALT (male Wistar rats; [9])?
The ALT was 5.00 ± 0.00 U/L.

What about the AST (male Wistar rats; [9]) of the same molecule?
Its AST is 42.00 ± 7.15 U/L.

And the Creatinine (male Wistar rats; [9])?
Its Creatinine is 0.25 ± 0.15 mg/dL.

And the Physical appearance (male Wistar rats; male Wistar rats, pre-dose and post-dose (24 h), i.v. and oral)?
The Physical appearance was “normal physical appearance”.

What about the ALT (male Wistar rats; [10]) of the same molecule?
The ALT was 6.83 ± 3.25 U/L.

What about the AST (male Wistar rats; [10]) of the same molecule?
The AST was 40.83 ± 22.39 U/L.

And the Creatinine (male Wistar rats; [10])?
Its Creatinine is 0.17 ± 0.01 mg/dL.

What about the ALT (male Wistar rats; [11]) of the same molecule?
The ALT was 9.40 ± 9.28 U/L.

And the AST (male Wistar rats; [11])?
The AST was 32.40 ± 16.47 U/L.

What about the Creatinine (male Wistar rats; [11]) of the same molecule?
The Creatinine was 0.17 ± 0.01 mg/dL.

What about the Kp ([1]; male, Wistar, in vivo, 100 mg/kg, rat, oral gavage, from 5 min to 4 h, read-out: Tissue to plasma ratio of oxyresveratrol, other internal organs (not stomach, small intestine)) of the same molecule?
Its Kp is 1 to 100.

What about the Kp at 5 min ([1]; male, Wistar, rat, in vivo, iv) of the same molecule?
Its Kp at 5 min is 10 to 100.

And the “Oxyresveratrol level in the brain” value ([1]; rat, 1, 2 and 4 h after intravenous administration)?
The value was “Very low levels”.

What about the dose excreted (in vivo; Wistar, in vivo, iv, Percentage recovery of unchanged oxyresveratrol in urine) of the same molecule?
The dose excreted was 5 to 10%.

What about the “Unchanged oxyresveratrol found in feces” value (in vivo; 0 to 48 h after intravenous dosing) of the same molecule?
The value was under 1%.

What about the “%Recovery (stability)” value (100 ng/mL) of the same molecule?
The value was 72.84%.

What about the “%Recovery (stability)” value (400 ng/mL) of the same molecule?
The value was 70.43%.

And the recovery at 100 ng/mL (physchem)?
The recovery at 100 ng/mL was 92.6%.

And the recovery at 400 ng/mL (physchem)?
The recovery at 400 ng/mL was 86.3%.

And the recovery at 12 h, 10 ng/mL (physchem)?
The recovery at 12 h, 10 ng/mL was 63.5%.

What about the recovery at 12 h, 100 ng/mL (physchem) of the same molecule?
The recovery at 12 h, 100 ng/mL was 73.5%.

What about the recovery at 12 h, 400 ng/mL (physchem) of the same molecule?
The recovery at 12 h, 400 ng/mL was 68.2%.

And the recovery at 30 d, 10 ng/mL (physchem)?
The recovery at 30 d, 10 ng/mL was 72.4%.

And the recovery at 30 d, 100 ng/mL (physchem)?
Its recovery at 30 d, 100 ng/mL is 85.8%.

And the recovery at 30 d, 400 ng/mL (physchem)?
Its recovery at 30 d, 400 ng/mL is 81.1%.

And the Tmax ([2]; po)?
Its Tmax is “approximately 15 min”.

And the Absolute oral bioavailability [2]?
Its Absolute oral bioavailability is 10–15%.

And the “Concentration reaching the brain” value [3]?
Its value is “only a minimal concentration reached the brain”.

What about the “P–glycoprotein substrate” value (P–glycoprotein [4]) of the same molecule?
The value was “substrate of P–glycoprotein”.

What does the source list for O=C(/C=C/C=C/c1ccc2c(c1)OCO2)N1CCCCC1 [piperine, Piperine]?
Decrease of in vivo UGT activity (UGT [5]; piperine 10 mg/kg p.o.): 36%; Decrease of in vivo UGT activity (UGT [5]; piperine 25 mg/kg p.o.): 55%; Inhibition of P–glycoprotein (P–glycoprotein [6]): inhibit; Hepatic microsomal activity of UGT in vitro (UGT [7]): reduces
